Reference: patent US8742113B2, “Furanone derivative” (SBI Biotech Co., Ltd., priority 2011, dated 2014)
Where two headings read alike, the source gives them in different places.

Key:
[1] = molecular target: human Cdc7/human ASK complex protein (Homo sapiens (Human), UniProt O00311); assay: Inhibitory effect on Cdc7 protein kinase (MSA assay kit); format: biochemical
Procedure: [Inhibitory Effect on Cdc7 Protein Kinase]
Measurement of kinase activity was carried out using an MSA assay kit (QuickScout Screening Assist™ Kit, Carna Biosciences, Inc.).
Assay buffer (20 mM HEPES, 0.01% Triton X-100™, 2 mM dithiothreitol, pH 7.5) was used to prepare a substrate mixture solution comprising 4 μM of a kinase-reaction substrate (FITC-labeled MCM2 peptide), 40 mM MgCl2, and 20 μM ATP.
The enzyme supplied in the kit (human Cdc7/human ASK complex protein) was diluted in the assay buffer so as to be at 7 nM, thereby preparing an enzyme solution.
The stock solution of each test compound was diluted in DMSO to prepare diluted DMSO solutions of 10 concentrations (0.00003 mM, 0.0001 mM, 0.0003 mM, 0.001 mM, 0.003 mM, 0.01 mM, 0.03 mM, 0.1 mM, 0.3 mM, 1 mM), each of which was further diluted 25 times in the assay buffer to make a drug solution (a solution containing 4% DMSO).
The kinase reaction was performed in wells of a polypropylene 384-well plate in which 5 μl of each of the drug solutions or of a solvent (assay buffer containing 4% DMSO), 5 μl of the substrate mixture solution, and 10 μl of the enzyme solution were mixed. The assay buffer, instead of the enzyme solution, was added to blank wells. After the reaction at room temperature for 5 hours, 60 μl of the termination buffer supplied in the kit was added to each well to stop the reaction. The percent inhibition of each reaction was determined using a LabChip EZ Reader II system (manufactured by Caliper Life Sciences), according to the protocol provided with the assay kit. In this case, the peak heights of the separated substrate and the phosphorylated substrate were represented as S and P, respectively, and the percent inhibition (%) by a tested compound was calculated according to the following formula: Percent inhibition(%)=(1−(C−A)/(B−A))×100 wherein A denotes P/(P+S) for a blank well, B denotes P/(P+S) for a solvent well, and C denotes P/(P+S) for a compound-added well.
The IC50 value of a tested compound was calculated by regression analysis of the percent inhibition values versus the (logarithmic) concentrations of the tested compound.

[2] = tested on: MCM2 phosphorylation in COLO205 cells; assay: Inhibitory effect on MCM2 phosphorylation using cells (Western blot); format: cell-based; details: Homo sapiens, COLO 205, 0.1 μM test compound, 24 hours, class by percent phosphorylation of MCM2, read-out: Test Example 2 Inhibitory effect on MCM2 phosphorylation
Procedure: [Inhibitory Effect on Phosphorylation Using Cells]
COLO205 cells derived from human colon adenocarcinoma (RCB2127, RIKEN BRC) were cultured in 10 cm dishes using RPMI-1640 medium (SIGMA, R8758) supplemented with 10% FCS (Equitech-bio) and 5% penicillin/streptomycin (GIBCO, 15140). After the cells were cultured to a confluence of 70 to 90%, the medium was removed, and the cells were treated with trypsin (2 mL, TrypLE Express, GIBCO, 12604-021) and then harvested using a new medium.
COLO205 cells were seeded in 6-well plates (FALCON, 35046) to 2.5×10^5 cells (1 ml) per well and cultured overnight in a 5% CO2 incubator. A drug solution, which was prepared by adding 1.5 μl of a 0.1-mM stock solution in DMSO of a test compound to 500 μl of medium, was added to each well (to a final drug concentration of 0.1 μM), and then cultured for another 24 hours.
Cells were cultured for 24 hours in the presence of a test compound, harvested using a similar way as described above, washed with PBS, and then pelletized and stored at −80° C. The frozen cells were thawed, subsequently suspended immediately in 2×SDS-PAGE electrophoresis buffer (1×10^5 cells per 10 μl), and heated at 95° C. for 10 minutes, leading to the dissolution and denaturation of the proteins. The resulting sample solutions were subjected to SDS-PAGE using a 5-20% gradient acrylamide gel (e-PAGEL (5-20%), ATTO, E-T520L). After the electrophoresis was completed, the gel was immersed in tris-glycine buffer supplemented with 20% methanol, and the proteins in the gel were transferred onto a PVDF membrane (MILLIPORE, Immobilon-P, IPVH00010) using a semi-dry transfer apparatus (TRNS-BLOT SD SEMI-DRY […] CELL, BIO RAD).
The transferred PVDF membrane was blocked with 5% skim milk (Difco Skim Milk, BD, 232100), and then subjected to reaction with an anti-MCM2 goat antibody (N-19, Santa Cruz, sc-9839) or anti-phosphorylated MCM2 rabbit antibody (S53) (Bethyl, A300-756A) as a primary antibody and additionally with an anti-α tubulin mouse antibody (Clone DM 1A, SIGMA, 9026) as an internal control. Each band was detected by chemiluminescence using an HRP-labeled anti-goat IgG donkey antibody (Santa Cruz, sc2020), anti-rabbit IgG sheep antibody (Roche, 12015218001), or anti-mouse IgG donkey antibody (Jackson ImmunoResearch, 715-035-151) as a secondary antibody. The combinations of and the diluted concentrations of the primary and secondary antibodies were as indicated below.
The bands which were detected were normalized using the amount of endogenous α-tubulin as a reference, and the percent phosphorylation of MCM2 was calculated for each of the tested compounds. Their inhibitory effects on MCM2 phosphorylation were indicated by a triple asterisk (***) in the case where the percent phosphorylation of MCM2 was less than 20%, by a dual asterisk (**) in the case where the percent phosphorylation of MCM2 was not less than 20% and less than 50%, and by a single asterisk (*) in the case where the percent phosphorylation of MCM2 was not less than 50% and less than 70%.

Chain of human Cdc7/human ASK complex protein (O00311 whole entry): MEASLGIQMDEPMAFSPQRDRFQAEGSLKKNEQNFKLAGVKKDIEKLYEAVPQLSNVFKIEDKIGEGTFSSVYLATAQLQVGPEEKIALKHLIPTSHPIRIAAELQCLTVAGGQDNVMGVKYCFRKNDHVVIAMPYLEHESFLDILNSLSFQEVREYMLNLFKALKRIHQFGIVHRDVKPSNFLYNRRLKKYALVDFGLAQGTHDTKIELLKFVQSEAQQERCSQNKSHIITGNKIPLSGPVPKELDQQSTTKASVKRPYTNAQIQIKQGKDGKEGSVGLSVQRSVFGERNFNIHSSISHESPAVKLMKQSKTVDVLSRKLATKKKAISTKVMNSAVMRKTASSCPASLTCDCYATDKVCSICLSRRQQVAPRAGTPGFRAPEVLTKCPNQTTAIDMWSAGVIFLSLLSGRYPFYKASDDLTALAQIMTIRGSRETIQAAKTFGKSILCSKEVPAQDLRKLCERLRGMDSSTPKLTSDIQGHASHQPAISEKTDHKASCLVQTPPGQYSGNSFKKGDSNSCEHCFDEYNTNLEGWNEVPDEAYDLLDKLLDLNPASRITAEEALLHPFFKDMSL
Chain of human Cdc7/human ASK complex protein (Q9UBU7 whole entry partner): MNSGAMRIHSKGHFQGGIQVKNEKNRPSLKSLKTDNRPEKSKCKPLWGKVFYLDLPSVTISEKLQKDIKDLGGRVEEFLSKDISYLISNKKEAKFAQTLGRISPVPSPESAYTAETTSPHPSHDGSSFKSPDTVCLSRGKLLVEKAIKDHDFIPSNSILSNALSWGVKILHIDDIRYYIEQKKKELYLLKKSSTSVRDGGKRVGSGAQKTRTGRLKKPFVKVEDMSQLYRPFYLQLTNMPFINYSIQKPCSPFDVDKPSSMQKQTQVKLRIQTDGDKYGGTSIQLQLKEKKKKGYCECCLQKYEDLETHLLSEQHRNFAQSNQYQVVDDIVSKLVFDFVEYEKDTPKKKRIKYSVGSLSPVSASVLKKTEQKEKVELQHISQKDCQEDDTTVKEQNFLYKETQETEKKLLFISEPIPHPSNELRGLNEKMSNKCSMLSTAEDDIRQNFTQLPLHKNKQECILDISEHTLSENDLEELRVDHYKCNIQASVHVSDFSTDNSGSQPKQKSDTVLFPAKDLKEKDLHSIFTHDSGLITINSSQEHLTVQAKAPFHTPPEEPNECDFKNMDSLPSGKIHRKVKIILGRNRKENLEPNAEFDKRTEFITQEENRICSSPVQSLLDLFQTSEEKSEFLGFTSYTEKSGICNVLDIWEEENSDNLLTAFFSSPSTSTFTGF

| IC50 ([1]; human Cdc7/human ASK complex, FITC-labeled MCM2 peptide substrate, reaction 5 hours at room temperature, read-out: Test Example 1 Cdc7 IC50 value) | IC50 [1] | SMILES | inhibition at 0.1 µM [2] |
| --- | --- | --- | --- |
| 3 nM |  | O=C(OCCCO)C1=C(Nc2ccc(F)cc2)O/C(=C\c2c[nH]c3ncccc23)C1=O [Example 89, 3-Hydroxypropyl 5-[(1H-pyrrolo[2,3-b]pyridin-3-yl)methylene]-2-[(4-fluorophenyl)amino]-4-oxo-4,5-dihydrofuran-3-carboxylate] | < 20% |
|  | 1 nM | O=C1C=C(Nc2ccc3[nH]ncc3c2)O/C1=C\c1c[nH]c2ncccc12 [Example 239, 2-[(1H-Pyrrolo[2,3-b]pyridin-3-yl)methylene]-5-[(5-indazolyl)amino]furan-3(2H)-one] | 20 to 50% |
